Assay results: patent publication US12599588B2, “Inhibitor for V-ATPase activity, antibacterial agent, medicine, antibacterial method and screening method” (Japan Science and Technology Agency, priority 2019, dated 2026)
pIC50: −log10 of the molar value. Where two headings read alike, the source gives them in different places.

Tests used:
[1] = molecular target: T1, V-ATPase (purified from enterococci or recombinant E. coli) (Enterococcus hirae, UniProt P43439+P43457); assay: ATPase activity measurement (molybdenum blue method, primary screening); assay type: biochemical; conditions: for IC50: IC50 (nM)
T1 construct: made in house; host or cells: Enterococcus hirae (native) or recombinant E. coli
Experimental: The ATPase activity can be measured by a molybdenum blue method for measuring absorbance of the inorganic phosphoric acid generated by hydrolysis of ATP. As the reaction conditions, conditions for measuring the ATPase activity can be adopted. As the buffer solution used in the reaction, Tris-HCl buffer can be used. The reaction time is usually 10 to 60 minutes, but can be appropriately adjusted depending on the air temperature or the like. The reaction of V-ATPase is terminated with the addition of a surfactant such as sodium dodecyl sulfate (SDS), and into which a color-developing liquid (such as ferrous sulfate) is added to give a color, and then the concentration of the inorganic phosphoric acid can be calculated by the measurement of the absorbance at a wavelength of 650 nm.
From the concentration of inorganic phosphoric acid calculated above, the inhibition rate of the V-ATPase reaction can be calculated. That is, a graph is created in which the inhibition rate is plotted on the vertical axis and the concentration of compound is plotted on the horizontal axis, and the concentration (IC50) at which the inhibition rate becomes 50% is determined. As the concentration of compound at which IC50 is obtained becomes lower, a higher V-ATPase inhibitory effect is exerted with a small amount, and accordingly, the compound can be taken as a candidate compound for the inhibitor for V-ATPase activity.
The V-ATPase was prepared by the method disclosed in the following papers. • Paper 1: Takeshi Murata, et. al, “Purification and Reconstitution of Na^+-translocating Vacuolar ATPase from Enterococcus hirae”, J. Biol. Chem. 272, 24885-24890 (1997) • Paper 2: Takeshi Murata, et. al, “Torque Generation of Enterococcus hirae V-ATPase”, J. Biol. Chem. 289, 31212-31223 (2014)
ATPase activity measurement was conducted by a molybdenum blue method that quantifies the inorganic phosphoric acid generated by hydrolysis of ATP with the use of absorbance measurement. The measurement was conducted in a 96-well plate, and 0.05% DDM (n-dodecyl-β-D-maltoside), 10 μg/mL of V-ATPase (purified from enterococci or recombinant E. coli), and 20 μM of a compound were added into a buffer (100 mM Tris-HCl at pH 8.5, 100 mM NaCl, 5 mM MgSO4, 10% glycerol). Into the mixture obtained above, ATP was added so as to be 5 mM, the whole amount was set to 100 μL, the reaction was started while stirring the mixture with a stirrer, and the reaction time was set to 30 minutes. Since the ATPase activity changes largely depending on the reaction temperature, the reaction time was adjusted within the range of 10 to 60 minutes corresponding to the air temperature on the day of the experiment. With the addition of 50 μL of 20% SDS, the V-ATPase was denatured and the reaction was terminated, and into the resultant mixture, 75 μL of color-developing liquid (5% ferrous sulfate, 1.6% ammonium molybdate, and 1 M sulfuric acid) was added to give a color. Immediately, the absorbance at a wavelength of 650 nm was measured by using a plate reader. Four kinds of KH2PO4 aqueous solutions of 0.2 mM, 0.5 mM, 1.0 mM, and 1.5 mM were reacted with MQ (ultrapure water) in the same experiment system, and then the activity of V-ATPase was measured by determining the concentration of generated inorganic phosphoric acid with the use of a created calibration curve. In this regard, a compound that had inhibited 50% or more of the activity of V-ATPase was diluted stepwisely so as to have a concentration of 10 μM, 5 μM, 2 μM, 1 μM, 500 nM, 200 nM, 100 nM, and 50 nM, and the measurement similar to the above was conducted.
From the results of the above measurement of ATPase activity, the inhibition rate was calculated comparing the decrease in the activity by assuming the activity under the condition of no compound addition as 100. A graph was created in which the inhibition rate was plotted on the vertical axis and the concentration of compound was plotted on the horizontal axis (FIG. 2). […]

[2] = test system: enterococci (Enterococcus hirae); assay: Growth experiment of enterococci (secondary screening), OD600 at pH 7.0 and pH 8.5; assay type: cell-based; parameters: Growth inhibition rate (%): concentration or dose not given beside the values; conditions: for Specificity: growth inhibition at pH 8.5 versus pH 7.0
Experimental: In the culture of enterococci (Enterococcus hirae), a culture medium in which the Na^+ concentration had been adjusted by adding a buffer solution using 2% tryptone and 1% yeast extract as the base was used. In a case of adding glucose, glucose prepared in a 50% solution was added so as to be 1% into the culture medium when the culture medium was used. The whole amount 200 μL was cultured using a 96-well plate, and OD600 was measured every hour by using a plate reader. By using culture media at pH 7.0 and pH 8.5, the effect of pH on the growth was observed. In culture of bacteria, the pH often fluctuates largely due to the decomposition of the sugars required for the growth, and it is extremely important to maintain a constant pH in this experiment, and therefore, the pH was maintained constant with the addition of a buffer suitable for each pH. Since the V-ATPase is expressed only under an alkaline condition, the growth inhibition observed with the addition of an inhibitor is largely dependent on the pH.
IC50 and the like of the above 24 kinds of compounds are described in the following table. […] Furthermore, with respect to the symbol “n.a.”, a compound having a growth inhibition rate of 60% or more at pH 7.0 is determined that there was the growth inhibition. In addition, the growth inhibition rate of a compound having no clear inhibition is also recorded for reference.

[3] = Table 2, inhibition of V-ATPase ATPase activity, pH 8.5 buffer, read-out: IC50
[4] = Table 2, E. hirae growth, pH not stated (media pH 7.0 and pH 8.5)
[5] = Table 3, 2-phenyl benzimidazole derivatives
[6] = Table 2, inhibition of V-ATPase ATPase activity, pH 8.5 buffer
[7] = high affinity for V-ATPase (IC50), unit inferred
[8] = Table 4, (1,2,4-oxadiazol-3-yl)phenyl derivatives
[9] = Table 3, 2-phenyl benzimidazole derivatives, read-out: IC50

| Compound | pIC50 [1, 3] | Growth inhibition rate (%) [2, 4] [%] | Specificity ([2]; Table 2) | IC50 [1, 6] [nM] | other results |
| --- | --- | --- | --- | --- | --- |
| CCCCCCCCc1ccc(O)c(C=O)c1 [Compound V-91] | 6.07 | 90.9 | n.a. (there was the growth inhibition in any case) |  |  |
| CCOc1ccc2nc3cc(N)ccc3c(N)c2c1 [Compound V-170] | 5.00 | 49.7 | + (there was no growth inhibition at pH 7.0 but was the growth inhibition at pH 8.5) |  |  |
| Cc1ccc2[nH]c(-c3ccc(N4CCCC4)cc3)nc2c1 [Compound V-161-01] |  |  |  |  | IC50 [1, 5]: 50 nM; Growth inhibition rate (%) [2, 5]: 89.7%; Specificity ([2]; Table 3): + (there was no growth inhibition at pH 7.0 but was the growth inhibition at pH 8.5) |
| CCCCCCCCCOc1ccc(C=C2C(=O)NC(=O)NC2=O)cc1 [Compound V-130, 5-(4-(nonyloxy)benzylidene)pyrimidine-2,4,6 (1H,3H,5H)-trione] |  | 88.2 | − (there was no growth inhibition in any case) | 20 | pIC50 [1, 7]: ≥ 6.40; non-specific inhibition / non-specific bond [2]: non-specific inhibition |
| Cc1ccccc1OCc1nc(-c2ccc(NC(=O)c3cccs3)cc2)no1 [Compound V-234, N-(4-(5-((o-tolyloxy)methyl)-1,2,4-oxadiazol-3-yl)phenyl)thiophene-2-carboxamide] |  | 75.5 | + (there was no growth inhibition at pH 7.0 but was the growth inhibition at pH 8.5) | 40 | IC50 [1, 8]: 40 nM; pIC50 [1, 7]: ≥ 6.40; non-specific inhibition / non-specific bond [2]: no non-specific inhibition; Growth inhibition rate (%) [2, 8]: 75.5% |
| CC(C)CN(CC(C)C)c1ccc([N+](=O)[O-])cc1/C=N/Nc1ccccc1 [Compound V-105] | 6.00 | 90.8 | n.a. (there was the growth inhibition in any case) |  |  |
| CC(Cc1ccc(O)c(O)c1)C(C)Cc1ccc(O)c(O)c1 (stereo not drawn) [Compound V-115] |  | 0.3 | − (there was no growth inhibition in any case) | 400 |  |
| CC1(C)CC2(CC(C)(C)c3cc(O)c(O)cc32)c2cc(O)c(O)cc21 [Compound V-124] | 6.52 | 49.2 | + (there was no growth inhibition at pH 7.0 but was the growth inhibition at pH 8.5) |  |  |
| COc1ccc(C(c2ccc3cccnc3c2O)N2CCOCC2)cc1 (stereo not drawn) [Compound V-201] | 5.40 | 19.6 | − (there was no growth inhibition in any case) |  |  |
| O=C1N=C(NC2CCCC2)S/C1=C\c1ccc(OC(F)F)cc1OC(F)F [Compound V-6, (Z)-5-(2,4-bis(difluoromethoxy)benzylidene)-2-(cyclopentylamino) thiazol-4 (5H)-one] |  | 77.9 | + (there was no growth inhibition at pH 7.0 but was the growth inhibition at pH 8.5) | 80 | pIC50 [1, 7]: ≥ 6.40; non-specific inhibition / non-specific bond [2]: no non-specific inhibition |
| CCC(C)C1OC2(CCC1C)CC1CC(CC=C(C)C(OC3CC(OC)C(OC4CC(OC)C(O)C(C)O4)C(C)O3)C(C)C=CC=C3COC4C(O)C(C)=CC(C(=O)O1)C34O)O2 (stereo not drawn) [Compound V-85] |  | 66.4 | + (there was no growth inhibition at pH 7.0 but was the growth inhibition at pH 8.5) | 10000 |  |
| CCCCCOc1ccc(NC(=O)c2cccs2)cc1 [Compound V-103] |  | 45.3 | + (there was no growth inhibition at pH 7.0 but was the growth inhibition at pH 8.5) | 100 |  |
| N=C(N)Nc1nc(-c2ccccc2)c2cc(F)ccc2n1 [Compound V-171] | 5.60 | 85.6 | + (there was no growth inhibition at pH 7.0 but was the growth inhibition at pH 8.5) |  |  |
| O=C1N=C(O)N=C(O)C1=Cc1ccc(-c2ccc([N+](=O)[O-])cc2)o1 [Compound V-278] |  | 44.4 | + (there was no growth inhibition at pH 7.0 but was the growth inhibition at pH 8.5) | 250 |  |
| Cc1ccc(C(=O)Nc2ccc(-c3noc(COc4cccc(C)c4C)n3)cc2)s1 [Compound V-234-03] |  |  |  |  | IC50 [1, 8]: 6 nM; Growth inhibition rate (%) [2, 8]: 72.0% |
| O=C(NC(c1ccccc1)c1cc([N+](=O)[O-])c2cccnc2c1O)C1CCCCC1 (stereo not drawn) [Compound V-157] | 5.70 | 84.2 | n.a. (there was the growth inhibition in any case) |  |  |
| CCCOc1ccc(/C=N/Nc2nc3ccccc3[nH]2)c(OCCC)c1 [Compound V-289] | 6.22 | 55.0 | + (there was no growth inhibition at pH 7.0 but was the growth inhibition at pH 8.5) |  |  |
| Cc1cccc(OCc2nc(-c3ccc(NC(=O)c4cccs4)cc3)no2)c1C [Compound V-234-02] |  |  |  |  | IC50 [1, 8]: 40 nM; Growth inhibition rate (%) [2, 8]: 74.8% |
| O=C(c1cnc(Nc2nc3ccccc3o2)nc1)c1cc(Cl)cc(Cl)c1O [Compound V-207] | 5.30 | 12.0 | − (there was no growth inhibition in any case) |  |  |
| CCCCC#Cc1cncc(C(=O)N/N=C/c2cccs2)c1 [Compound V-99] | 5.60 | 6.7 | − (there was no growth inhibition in any case) |  |  |
| Cc1ccc2[nH]c(-c3ccc(Br)cc3)nc2c1 [Compound V-161-03] |  |  |  |  | pIC50 [1, 9]: 6.92; Growth inhibition rate (%) [2, 5]: 89.8%; Specificity ([2]; Table 3): + (there was no growth inhibition at pH 7.0 but was the growth inhibition at pH 8.5) |
| Cc1ccc2[nH]c(-c3ccc(I)cc3)nc2c1 [Compound V-161-04] |  |  |  |  | pIC50 [1, 9]: 6.92; Growth inhibition rate (%) [2, 5]: 90.3%; Specificity ([2]; Table 3): + (there was no growth inhibition at pH 7.0 but was the growth inhibition at pH 8.5) |
